Source: US10106504B2, “Pyridin-3-yl acetic acid derivatives as inhibitors of human immunodeficiency virus replication” (priority 2015, dated 2018)
Where two headings read alike, the source gives them in different places.

System: NL-RLuc virus
Experiment: Inhibition of HIV replication (NL-RLuc virus, luciferase readout in MT-2 cells)
Format: cell-based
Conditions: Human immunodeficiency virus 1, MT2, 120 h
From the text: Inhibition of HIV Replication:
A recombinant NL-RLuc proviral clone was constructed in which a section of the nef gene from NL4-3 was replaced with the Renilla Luciferase gene. This virus is fully infectious and can undergo multiple cycles of replication in cell culture. In addition, the luciferous reporter provides a simple and easy method for quantitating the extent of virus growth and consequently, the antiviral activity of test compounds. The plasmid pNLRLuc contains the proviral NL-Rluc DNA cloned into pUC18 at the PvuII site. The NL-RLuc virus was prepared by transfection of 293T cells with the plasmid pNLRLuc. Transfections were performed using the LipofectAMINE PLUS kit from Invitrogen (Carlsbad, Calif.) according to the manufacturer and the virus generated was titered in MT-2 cells. For susceptibility analyses, the titrated virus was used to infect MT-2 cells in the presence of compound, and after 5 days of incubation, cells were processed and quantitated for virus growth by the amount of expressed luciferase. Assay media was RPMI 1640 supplemented with 10% heat inactivated fetal bovine serum (FBS), 100 units/ml penicillin G/100 units/ml streptomycin, 10 mM HEPES buffer pH 7.55 and 2 mM L-glutamine. The results from at least 2 experiments were used to calculate the EC50 values. Luciferase was quantitated using the Dual Luciferase kit from Promega (Madison, Wis.). Susceptibility of viruses to compounds was determined by incubation in the presence of serial dilutions of the compound. The 50% effective concentration (EC50) was calculated by using the exponential form of the median effect equation where (Fa)=1/[1+(ED50/drug conc.)^m] (Johnson V A, Byington R T. Infectivity Assay. In Techniques in HIV Research. ed. Aldovini A, Walker BD. 71-76. New York: Stockton Press. 1990). Activity equal to A refers to a compound having an EC50<100 nM, while B and C denote compounds having an EC50 between 100 nM and 1 uM (B) or >1 uM (C).

SMILES | EC50 (read-out: Activity) [µM] | EC50 (read-out: EC50 μM) [µM]
Cc1cccc(F)c1CN1CCc2cc(-c3c(C)nc(C)c([C@H](OC(C)(C)C)C(=O)O)c3-c3ccc4c(c3)CCCO4)ccc2C1 [Example 25, (S)-2-(tert-Butoxy)-2-(4-(chroman-6-yl)-5-(2-(2-fluoro-6-methylbenzyl)-1,2,3,4-tetrahydroisoquinolin-6-yl)-2,6-dimethylpyridin-3-yl)acetic Acid] | < 0.1 | 
Cc1cccc(CN2CCc3cc(-c4c(C)nc(C)c([C@H](OC(C)(C)C)C(=O)O)c4-c4ccc5c(c4)CCCO5)ccc3C2)c1F [Example 26, (S)-2-(tert-Butoxy)-2-(4-(chroman-6-yl)-5-(2-(2-fluoro-3-methylbenzyl)-1,2,3,4-tetrahydroisoquinolin-6-yl)-2,6-dimethylpyridin-3-yl)acetic Acid] | < 0.1 | 
Cc1nc(C)c([C@H](OC(C)(C)C)C(=O)O)c(-c2ccc3c(c2)CCCO3)c1-c1ccc2c(c1)CCN(Cc1ccccc1Cl)C2 [Example 27, (S)-2-(tert-Butoxy)-2-(5-(2-(2-chlorobenzyl)-1,2,3,4-tetrahydroisoquinolin-6-yl)-4-(chroman-6-yl)-2,6-dimethylpyridin-3-yl)acetic Acid] | < 0.1 | 0.005
Cc1ccc(CN2CCc3cc(-c4c(C)nc(C)c([C@H](OC(C)(C)C)C(=O)O)c4-c4ccc5c(c4)CCCO5)ccc3C2)c(C)c1 [Example 28, (S)-2-(tert-Butoxy)-2-(4-(chroman-6-yl)-5-(2-(2,4-dimethylbenzyl)-1,2,3,4-tetrahydroisoquinolin-6-yl)-2,6-dimethylpyridin-3-yl)acetic Acid] | < 0.1 | 
Cc1cccc(Cl)c1CN1CCc2cc(-c3c(C)nc(C)c([C@H](OC(C)(C)C)C(=O)O)c3-c3ccc4c(c3)CCCO4)ccc2C1 [Example 29, (S)-2-(tert-Butoxy)-2-(5-(2-(2-chloro-6-methylbenzyl)-1,2,3,4-tetrahydroisoquinolin-6-yl)-4-(chroman-6-yl)-2,6-dimethylpyridin-3-yl)acetic Acid] | < 0.1 | 
Cc1nc(C)c([C@H](OC(C)(C)C)C(=O)O)c(-c2ccc3c(c2)CCCO3)c1-c1ccc2c(c1)CCN(CCc1ccccc1F)C2 [Example 30, (S)-2-(tert-Butoxy)-2-(4-(chroman-6-yl)-5-(2-(2-fluorophenethyl)-1,2,3,4-tetrahydroisoquinolin-6-yl)-2,6-dimethylpyridin-3-yl)acetic Acid] | < 0.1 | 
Cc1nc(C)c([C@H](OC(C)(C)C)C(=O)O)c(-c2ccc3c(c2)CCCO3)c1-c1ccc2c(c1)CCN(CCCc1ccc(F)cc1)C2 [Example 31, (S)-2-(tert-Butoxy)-2-(4-(chroman-6-yl)-5-(2-(3-(4-fluorophenyl)propyl)-1,2,3,4-tetrahydroisoquinolin-6-yl)-2,6-dimethylpyridin-3-yl)acetic Acid] | < 0.1 | 
Cc1nc(CN(C)CC2CCOCC2)c(-c2ccc3c(c2)CCN(c2ncnc4c2cnn4C)C3)c(-c2ccc3c(c2)CCCO3)c1[C@H](OC(C)(C)C)C(=O)O [Example 32, (S)-2-(tert-Butoxy)-2-(4-(chroman-6-yl)-2-methyl-6-((methyl((tetrahydro-2H-pyran-4-yl)methyl)amino)methyl)-5-(2-(1-methyl-1H-pyrazolo[3,4-d]pyrimidin-4-yl)-1,2,3,4-tetrahydroisoquinolin-6-yl)pyridin-3-yl)acetic Acid] | 0.1 to 1 | 
Cc1cc(N2CCc3cc(-c4c(CN(C)CC5CCOCC5)nc(C)c([C@H](OC(C)(C)C)C(=O)O)c4-c4ccc5c(c4)CCCO5)ccc3C2)ncn1 [Example 33, (S)-2-(tert-Butoxy)-2-(4-(chroman-6-yl)-2-methyl-6-((methyl((tetrahydro-2H-pyran-4-yl)methyl)amino)methyl)-5-(2-(6-methylpyrimidin-4-yl)-1,2,3,4-tetrahydroisoquinolin-6-yl)pyridin-3-yl)acetic Acid] | 0.1 to 1 | 0.282
Cc1cccc(F)c1CN1CCc2cc(-c3c(CN(C)CC4CCOCC4)nc(C)c([C@H](OC(C)(C)C)C(=O)O)c3-c3ccc4c(c3)CCCO4)ccc2C1 [Example 34, (S)-2-(tert-Butoxy)-2-(4-(chroman-6-yl)-5-(2-(2-fluoro-6-methylbenzyl)-1,2,3,4-tetrahydroisoquinolin-6-yl)-2-methyl-6-((methyl((tetrahydro-2H-pyran-4-yl)methyl)amino)methyl)pyridin-3-yl)acetic Acid] | < 0.1 | 
Cc1cccc(Cl)c1CN1CCc2cc(-c3c(CN(C)CC4CCOCC4)nc(C)c([C@H](OC(C)(C)C)C(=O)O)c3-c3ccc4c(c3)CCCO4)ccc2C1 [Example 35, (S)-2-(tert-Butoxy)-2-(5-(2-(2-chloro-6-methylbenzyl)-1,2,3,4-tetrahydroisoquinolin-6-yl)-4-(chroman-6-yl)-2-methyl-6-((methyl((tetrahydro-2H-pyran-4-yl)methyl)amino)methyl)pyridin-3-yl)acetic Acid] | < 0.1 | 
Cc1nc(C)c([C@H](OC(C)(C)C)C(=O)O)c(-c2ccc3c(c2)C(F)(F)CCO3)c1-c1ccc(OCCc2ccc(F)cc2)cc1 [Example 36, (S)-2-(tert-Butoxy)-2-(4-(4,4-difluorochroman-6-yl)-5-(4-(4-fluorophenethoxy)phenyl)-2,6-dimethylpyridin-3-yl)acetic Acid] | < 0.1 | 
Cc1nc(C)c([C@H](OC(C)(C)C)C(=O)O)c(-c2ccc3c(c2)C(F)(F)CCO3)c1-c1ccc2c(c1)CCN(Cc1ccccc1F)C2 [Example 37, (S)-2-(tert-Butoxy)-2-(4-(4,4-difluorochroman-6-yl)-5-(2-(2-fluorobenzyl)-1,2,3,4-tetrahydroisoquinolin-6-yl)-2,6-dimethylpyridin-3-yl)acetic Acid] | < 0.1 | 
Cc1nc(C)c([C@H](OC(C)(C)C)C(=O)O)c(-c2cc(F)c3c(c2C)CCCO3)c1-c1ccc2c(c1)CCN(Cc1ccccc1F)C2 [Example 38, (2S)-2-(tert-Butoxy)-2-(4-(8-fluoro-5-methylchroman-6-yl)-5-(2-(2-fluorobenzyl)-1,2,3,4-tetrahydroisoquinolin-6-yl)-2,6-dimethylpyridin-3-yl)acetic Acid] | < 0.1 | 
Cc1cccc(F)c1CN1CCc2cc(-c3c(C)nc(C)c([C@H](OC(C)(C)C)C(=O)O)c3-c3cc(F)c4c(c3C)CCCO4)ccc2C1 [Example 39, (2S)-2-(tert-Butoxy)-2-(4-(8-fluoro-5-methylchroman-6-yl)-5-(2-(2-fluoro-6-methylbenzyl)-1,2,3,4-tetrahydroisoquinolin-6-yl)-2,6-dimethylpyridin-3-yl)acetic Acid] | < 0.1 | 0.024
Cc1ccccc1CN1CCc2cc(-c3c(C)nc(C)c([C@H](OC(C)(C)C)C(=O)O)c3-c3cc(F)c4c(c3C)CCCO4)ccc2C1 [Example 40, (2S)-2-(tert-Butoxy)-2-(4-(8-fluoro-5-methylchroman-6-yl)-2,6-dimethyl-5-(2-(2-methylbenzyl)-1,2,3,4-tetrahydroisoquinolin-6-yl)pyridin-3-yl)acetic Acid] | < 0.1 | 
Cc1ccc(-c2c(-c3ccc4c(c3)CCN(Cc3c(C)cccc3F)C4)c(C)nc(C)c2[C@H](OC(C)(C)C)C(=O)O)cc1 [Example 41, (S)-2-(tert-Butoxy)-2-(5-(2-(2-fluoro-6-methylbenzyl)-1,2,3,4-tetrahydroisoquinolin-6-yl)-2,6-dimethyl-4-(p-tolyl)pyridin-3-yl)acetic Acid] | < 0.1 | 
Cc1ccc(-c2c(-c3ccc4c(c3)CCN(Cc3ccccc3F)C4)c(C)nc(C)c2[C@H](OC(C)(C)C)C(=O)O)cc1 [Example 42, (S)-2-(tert-Butoxy)-2-(5-(2-(2-fluorobenzyl)-1,2,3,4-tetrahydroisoquinolin-6-yl)-2,6-dimethyl-4-(p-tolyl)pyridin-3-yl)acetic Acid] | < 0.1 | 
Cc1nc(C)c([C@H](OC(C)(C)C)C(=O)O)c(-c2ccc3c4c(ccnc24)CCO3)c1-c1ccc(OCCc2ccc(F)cc2)cc1 [Example 43, (2S)-2-(tert-Butoxy)-2-(4-(2,3-dihydropyrano[4,3,2-de]quinolin-7-yl)-5-(4-(4-fluorophenethoxy)phenyl)-2,6-dimethylpyridin-3-yl)acetic Acid] | 0.1 to 1 | 
Cc1nc(C)c([C@H](OC(C)(C)C)C(=O)O)c(-c2ccc3c(c2)CCCO3)c1-c1ccc(OCCc2ccc(F)cc2F)cc1 [Example 44, (S)-2-(tert-Butoxy)-2-(4-(chroman-6-yl)-5-(4-(2,4-difluorophenethoxy)phenyl)-2,6-dimethylpyridin-3-yl)acetic Acid] | < 0.1 | 
Cc1nc(C)c([C@H](OC(C)(C)C)C(=O)O)c(-c2ccc3c(c2)CCCO3)c1-c1ccc(OCCc2ccccc2F)cc1 [Example 45, (S)-2-(tert-Butoxy)-2-(4-(chroman-6-yl)-5-(4-(2-fluorophenethoxy)phenyl)-2,6-dimethylpyridin-3-yl)acetic Acid] | < 0.1 | 
Cc1nc(C)c([C@H](OC(C)(C)C)C(=O)O)c(C2=CCC(C)(C)CC2)c1-c1ccc(OCCc2ccc(F)cc2)cc1 [Example 46, (S)-2-(tert-Butoxy)-2-(4-(4,4-dimethylcyclohex-1-en-1-yl)-5-(4-(4-fluorophenethoxy)phenyl)-2,6-dimethylpyridin-3-yl)acetic Acid] | < 0.1 | 0.061
